≈ marks a conversion by molar mass, not a printed value.
Key:
Type in all cases: functional
Pseudomonas aeruginosa = test: Antibacterial activity against Pseudomonas aeruginosa CGMCC 1.2031 after 24 hrs by micro-broth dilution method; conditions: CGMCC 1.2031, 24 h
Bacillus cereus = test: Antibacterial activity against Bacillus cereus CGMCC 1.1846 after 24 hrs by micro-broth dilution method; conditions: CGMCC 1.1846, 24 h
Bacillus subtilis = test: Antibacterial activity against Bacillus subtilis CGMCC 1.88 after 24 hrs by micro-broth dilution method; conditions: CGMCC 1.88, 24 h
Staphylococcus aureus [1] = test: Antibacterial activity against Staphylococcus aureus CGMCC 1.89 after 24 hrs by micro-broth dilution method; conditions: CGMCC 1.89, 24 h
Escherichia coli = test: Antibacterial activity against Escherichia coli CGMCC 1.1574 after 24 hrs by micro-broth dilution method; conditions: CGMCC 1.1574, 24 h
Staphylococcus aureus [2] = test: Antibacterial activity against methicillin-resistant Staphylococcus aureus after 24 hrs by micro-broth dilution method

SMILES | MIC (Pseudomonas aeruginosa) [µg/mL] | MIC (Bacillus cereus) [µg/mL] | MIC (Bacillus subtilis) [µg/mL] | MIC (Staphylococcus aureus [1]) [µg/mL] | MIC (Escherichia coli) [µg/mL] | MIC (Staphylococcus aureus [2]) [µg/mL]
COC1C=NN2C(=O)[C@H]3CCCNN3C(=O)[C@@H](C(C)C)NC(=O)[C@@H]3C[C@@]4(O)c5ccc(Cl)cc5N[C@H]4N3C(=O)[C@H]3CCCNN3C(=O)[C@H](C)N(C)C(=O)C2C1 (stereo not given in full) | > 100 | 25 (≈ 31.8 µM) | 25 (≈ 31.8 µM) | 25 (≈ 31.8 µM) | > 100 | 25 (≈ 31.8 µM)
CC(C)[C@H]1NC(=O)[C@@H]2C[C@@]3(O)c4ccc(Cl)cc4N[C@H]3N2C(=O)[C@H]2CCCNN2C(=O)[C@@H](C)NC(=O)[C@H]2CCCNN2C(=O)[C@@H]2CCCNN2C1=O | > 100 | > 100 | > 100 | > 100 | > 100 | > 100
CC(C)[C@@H]1NC(=O)[C@@H]2C[C@@]3(O)c4ccc(Cl)cc4N[C@H]3N2C(=O)[C@H]2CCCNN2C(=O)[C@@H](C)N(C)C(=O)[C@H]2CCCNN2C(=O)[C@@H]2CCCNN2C1=O | > 100 | 12.5 (≈ 16.5 µM) | 12.5 (≈ 16.5 µM) | 6.25 (≈ 8.25 µM) | > 100 | 6.25 (≈ 8.25 µM)
CC1(C)S[C@@H]2[C@H](NC(=O)[C@H](N)c3ccccc3)C(=O)N2[C@H]1C(=O)[O-].[Na+] [AMPICILLIN SODIUM] | > 100 | 6.25 | 1.56 | 6.25 | 3.13 | > 100
COC1=CC2C(=O)N(C)[C@@H](C)C(=O)N3NCCC[C@@H]3C(=O)N3[C@@H](C[C@@]4(O)c5ccc(Cl)cc5N[C@@H]34)C(=O)N[C@H](C(C)C)C(=O)N3NCCC[C@@H]3C(=O)N2N=C1 (stereo not given in full) | > 100 | 3.13 (≈ 4 µM) | 3.13 (≈ 4 µM) | 1.56 (≈ 1.99 µM) | > 100 | 1.56 (≈ 1.99 µM)
